Test results: ChEMBL document CHEMBL1159384, “Antidiabetic dimeric guianolides and a lignan glycoside from Lactuca indica” (2003)

Test system: Rattus norvegicus
Test: Antidiabetic activity in STZ-diabetic rat assessed as lowering of plasma glucose level at 1 mM/kg
Type: functional

## C=C1C(=O)O[C@@H]2[C@H]3C(COC(=O)Cc4ccc(O)cc4)=CC(=O)C3=C(C)C[C@H](O[C@H]3CC(C)=C4C(=O)C=C(COC(=O)Cc5ccc(O)cc5)[C@@H]4[C@H]4OC(=O)[C@@H](C)[C@@H]43)[C@@H]12 [LACTUCAIN C]
  Activity: -22.74%

## COc1cc([C@H]2O[C@@H](O)[C@@H]3[C@H]2[C@H](O[C@@H]2O[C@H](CO)[C@@H](O)[C@H](O)[C@H]2O)O[C@@H]3c2ccc(O)c(OC)c2)ccc1O [LACTUCASIDE]
  Activity: -17.95%
